Results from PubChem BioAssay AID2060891 (Molecular Pharmacology Branch, DTP, NCI, 2025).

Test system: K98450-129-R-PDC complex spheroid growth, percent test/control
Assay: Anticancer human tumor K98450-129-R-PDC patient-derived colon adenocarcinoma cell line growth inhibition [RAS]
Details: for IC50: curve of first compound; for viability, T/C: stronger effect = lower value
Description: RAS pathway inhibitors in Combinations in Complex Spheroids
A high-throughput screen of multi-cell type tumor spheroids was designed to identify active combinations of RAS pathway inhibitors and targeted small molecules. Complex spheroids include a stromal component modeled by human endothelial cells (HUVEC) and fibroblasts modeled by human mesenchymal stem cells (MSCs). The concentration ranges selected for each drug and investigational agent were based upon clinically achievable concentrations if the clinical Cmax of the agent was known.
Compounds. The drugs and investigational agents: abemaciclib (NSC768073), cobimetinib (NSC768068), divarasib (GDC6063, NSC841802), docetaxel (NSC628503), GDC-1971 (RLY-1971, NSC841576), gemcitabine (NSC613327), inavolisib (NSC800729), ipatasertib (NSC767898), KB-0742 (NSC834161), MRTX-1133 (NSC836407), osimertinib (NSC779217), RMC-4630 (NSC839698), RMC-6236 (NSC851965), RMC-6291 (NSC852671), Ro-3306 (NSC812927), sapanisertib (NSC764658), SN-38 (NSC673596), staurosporine (NSC755774), SY5609 (NSC837396), and tovorafenib (DAY101, NSC766906), were obtained from the National Cancer Institute (NCI) Developmental Therapeutics Program Chemical Repository. The FDA-approved anticancer drug set is available from the NCI Developmental Therapeutics Program. […] The stock solutions were prepared in dimethyl sulfoxide (DMSO, Sigma-Aldrich, St. Louis, MO, cat. D2650) at 800-fold the tested concentration and stored at -70 degrees C prior to their use. All drugs and investigational agents were tested over a range starting from a high concentration at or near the clinical Cmax and decreasing in half-log increments. If the clinical Cmax for an agent had not been determined, the highest concentration tested was 10 microM.
Cell Culture. All cells were maintained in an incubator at 37 degrees C and 5% CO2 with 95% humidity. The PDC lines were cultured according to standard operating procedures established by the NCI PDMR. All PDCs were thawed and cultured in Matrigel-coated flasks prepared with a working solution of 1X Ham's F-12 nutrient mix, without supplementation (Invitrogen, Waltham, MA, cat. 11765054), 100 U/mL penicillin-streptomycin (Invitrogen, cat. 15140122), and 2.5% Matrigel (Corning Inc., Corning, NY, cat. 354248) for the first three passages. The 362531-283-R-J2-PDC and 782815-120-R-J1-PDC lines were cultured in 6C/Colon 1B media, which includes advanced DMEM/F-12 (Thermo Fisher Scientific, cat. 12634028), 10 mM HEPES (Thermo Fisher Scientific, cat. 15630080), 1X GlutaMAX supplement (Thermo Fisher Scientific, cat. 35050061), 0.1 mg/mL primocin (InvivoGen, San Diego, CA, cat. ant-pm-2), 10% defined fetal bovine serum, heat inactivated (HyClone Laboratories Inc., Logan, UT, cat. SH30070.03HI), 50% L-WRN conditioned media (ATCC, cat. CRL-3276), 1.25 mM N-Acetyl-L-cysteine (Sigma-Aldrich, cat. A9165), 10 mM nicotinamide (Sigma-Aldrich, cat. N0636), 1X B-27 supplement (Thermo Fisher Scientific, cat. 17504044), 1X N-2 supplement (Thermo Fisher Scientific, cat. 17502048), 50 ng/mL human EGF (Thermo Fisher Scientific, cat. PHG0311), and 10 microM Y-27632 dihydrochloride (Tocris Bioscience, cat. 1254). The K12877-001-R-J1-PDC line was cultured in 6I media, which includes all 6C/Colon 1B media plus 10 ng/mL human FGF-10 (PeproTech, cat. 100-26), 1 ng/mL human FGF-2 (PeproTech, cat. 100-18B), 1 µM prostaglandin E2 (Tocris Bioscience, cat. 2296), […] hydrocortisone (Sigma-Aldrich, cat. H4001), and […] bovine insulin (Sigma-Aldrich, cat. I6634). The K86415-001-R-J1-PDC line was cultured in 6D media, which includes all 6C/Colon 1B media components minus the L-WRN conditioned media. The 485176-168-R4-J1-PDC was cultured in PANC media, which includes all 6C/Colon 1B media plus 100 ng/mL human FGF-10 (PeproTech, cat. 100-26), 500 nM SB-431542 (Selleckchem, cat. S1067), and 10 nM gastrin (Tocris Bioscience, cat. 3006). […]
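Also: spheroids exposed to agents for seven days before the viability readout.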
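For viability, T/C in this document: luminescence used as a proxy for viable cell amount.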

## CC(Nc1ccc2c(c1)OCCn1cc(N3C(=O)OCC3C(F)F)nc1-2)C(N)=O (configuration not stated) + CCn1c(-c2cc(N3CCN(C)CC3)cnc2C(C)OC)c2c3cc(ccc31)-c1csc(n1)CC(NC(=O)C1CC1C)C(=O)N1CCCC(N1)C(=O)OCC(C)(C)C2
Second compound 0.000949 µM
  IC50: > 10 µM
Second compound 0.003 µM
  IC50: > 10 µM
Second compound 0.00949 µM
  IC50: > 10 µM
Second compound 0.03 µM
  IC50: < 0.0316 µM
Second compound 0.0949 µM
  IC50: < 0.0316 µM
Second compound 0.3 µM
  IC50: < 0.0316 µM
Second compound 0.000949 µM, first compound 0.0316 µM
  viability, T/C: 93.6%
Second compound 0.000949 µM, first compound 0.1 µM
  viability, T/C: 83.7%
Second compound 0.000949 µM, first compound 0.316 µM
  viability, T/C: 86.7%
Second compound 0.000949 µM, first compound 1 µM
  viability, T/C: 63.9%
Second compound 0.000949 µM, first compound 3.16 µM
  viability, T/C: 70.4%
Second compound 0.000949 µM, first compound 10 µM
  viability, T/C: 61.7%
Second compound 0.003 µM, first compound 0.0316 µM
  viability, T/C: 84%
Second compound 0.003 µM, first compound 0.1 µM
  viability, T/C: 81.1%
Second compound 0.003 µM, first compound 0.316 µM
  viability, T/C: 75.2%
Second compound 0.003 µM, first compound 1 µM
  viability, T/C: 67.5%
Second compound 0.003 µM, first compound 3.16 µM
  viability, T/C: 68.4%
Second compound 0.003 µM, first compound 10 µM
  viability, T/C: 61.3%
Second compound 0.00949 µM, first compound 0.0316 µM
  viability, T/C: 73.8%
Second compound 0.00949 µM, first compound 0.1 µM
  viability, T/C: 74.8%
Second compound 0.00949 µM, first compound 0.316 µM
  viability, T/C: 60.5%
Second compound 0.00949 µM, first compound 1 µM
  viability, T/C: 55.4%
Second compound 0.00949 µM, first compound 3.16 µM
  viability, T/C: 54.8%
Second compound 0.00949 µM, first compound 10 µM
  viability, T/C: 51%
Second compound 0.03 µM, first compound 0.0316 µM
  viability, T/C: 38.4%
Second compound 0.03 µM, first compound 0.1 µM
  viability, T/C: 48.4%
Second compound 0.03 µM, first compound 0.316 µM
  viability, T/C: 42.3%
Second compound 0.03 µM, first compound 1 µM
  viability, T/C: 35.4%
Second compound 0.03 µM, first compound 3.16 µM
  viability, T/C: 33.8%
Second compound 0.03 µM, first compound 10 µM
  viability, T/C: 26.8%
Second compound 0.0949 µM, first compound 0.0316 µM
  viability, T/C: 17.5%
Second compound 0.0949 µM, first compound 0.1 µM
  viability, T/C: 15.9%
Second compound 0.0949 µM, first compound 0.316 µM
  viability, T/C: 16%
Second compound 0.0949 µM, first compound 1 µM
  viability, T/C: 14.7%
Second compound 0.0949 µM, first compound 3.16 µM
  viability, T/C: 10.8%
Second compound 0.0949 µM, first compound 10 µM
  viability, T/C: 10.1%
Second compound 0.3 µM, first compound 0.0316 µM
  viability, T/C: 10%
Second compound 0.3 µM, first compound 0.1 µM
  viability, T/C: 10.2%
Second compound 0.3 µM, first compound 0.316 µM
  viability, T/C: 9.37%
Second compound 0.3 µM, first compound 1 µM
  viability, T/C: 8.15%
Second compound 0.3 µM, first compound 3.16 µM
  viability, T/C: 7.17%
Second compound 0.3 µM, first compound 10 µM
  viability, T/C: 4.8%
